# Entries after “also recorded” stand apart in the source; their conditions may differ.
# What was measured:
# Smo = Smo (Mus musculus, UniProt P56726); test: FRET assay for Smo multimerization (Smo-CFP/Smo-YFP); format: cell-based, murine; parameters: expressed in transfected cells; host or cells: NIH-3T3; details: 10 μM HPIs; for Shh-induced fold change in Smo-CFP/Smo-YFP FRET: 10 μM cyclopamine, 500 nM SAG
# Protocol: FRET assay for Smo multimerization. […] The cells were washed with PBS buffer, fixed with 4% paraformaldehyde for 20 min, and mounted on slides in 80% glycerol. Fluorescence signals were acquired with the 100× objective of a Zeiss LSM510 confocal microscope with the following conditions: CFP was excited by 458-nm light and the emission was collected through a BP 480-520-nm filter. YFP was excited by 514-nm light and the emission was collected through a BP 535-590-nm filter. The CFP signal was obtained before and after photobleaching YFP(CFPBP and CFPAP, respectively) using the full power of the 514-nm laser line for 1-2 min at the top half of each cell, leaving the bottom half unbleached as an internal control. The CFP fluorescence intensity was analyzed using Metamorph software (Universal Imaging Corp.), and the energy transfer efficiency was calculated using the formula: FRET %=((CFPAP−CFPBP)/CFPAP)×100. Photobleached areas in 11-19 cells were analyzed for each experimental condition.
# FLAG-Gli1 = test: Analysis of Gli1 stability; format: cell-based, mouse; details: Shh-LIGHT2 FLAG-Gli1 cells, 24 h
# Protocol: Analysis of Gli1 stability. […] The cells were maintained under these conditions for 24 h. The cells were subsequently solubilized in lysis buffer (100 μL/well; 50 mM Tris-HCl, pH 7.4, 1% Triton X-100, 250 mM NaCl, 2 mM EDTA, 20 mM NaF, 2 mM Na3VO4, 2 mM 2-mercaptoethanol, and EDTA-free protease inhibitor cocktail (Roche)). This suspension was transferred to a 1.5-mL centrifuge tube and incubated on ice for 30 min, with vortexing every 5 min. The cell lysates were then centrifuged at 20,000×g at 4° C. for 20 min. Supernatants were removed, and a BCA assay was performed to quantify protein levels. 15 μg […] of protein from each sample was solubilized in 1×SDS-PAGE sample buffer (50 mM Tris-HCl, pH 6.8 containing 10% glycerol, 2% SDS, 50 mM DTT, 200 mM 2-mercaptoethanol, and 0.001% bromophenol blue) and boiled for 5 min. The samples were then resolved on a 4-12% Bis-Tris Criterion XT gel and transferred to a PVDF membrane. The membrane was dehydrated with methanol, and then probed with mouse anti-FLAG M2 antibody (Sigma; 1:1,000 dilution in blocking buffer (PBS containing 3% non-fat dried milk and 0.01% Tween 20)) for 90 min. The blots were washed 4×5 min in PBS containing 0.01% Tween 20 and then probed with horseradish peroxidase-conjugated sheep anti-mouse IgG antibody (GE Healthcare; 1:10,000 dilution in blocking buffer) for 1 h. The membranes were washed again 4×3 min in PBS, and immunoreactive bands were detected with a SuperSignal West Dura kit and a ChemiDoc XRS system. To probe for loading controls, the blots were rinsed with PBS, incubated for 1 min in methanol, washed 3×5 min in PBS, and then re-blocked for 1 h in PBS containing 5% non-fat dried milk and 0.1% Tween 20. […] Protein bands were quantified using Quantity One software (Bio-Rad). FLAG-Gli1 and importin β1 bands were normalized to the average band intensities for each experiment. The ratio of these two values was then used to determine the relative amount of FLAG-Gli1 per condition. Results from three independent experiments were then averaged, and normalized to FLAG-Gli1 levels in DMSO-treated cells.
# FLAG-Gli2 = test: Immunostaining of FLAG-Gli2 line: ciliary FLAG-Gli2 and primary cilia; format: cell-based, mouse; details: for Ciliary levels of FLAG-Gli2: Shh-EGFP FLAG-Gli2 cells, immunofluorescence
# Protocol: Immunostaining of FLAG-Gli lines and NIH-3T3 cells. The FLAG-Gli1-expressing or FLAG-Gli2-expressing clonal cell lines were seeded into 24-well plates (80,000 cells/well) containing poly-D-lysine-coated 12-mm glass coverslips. […] The cells were subsequently fixed in 4% paraformaldehyde for 10 min at room temperature followed by treatment with methanol at −20° C. for 2 to 5 min. The cells were washed with PBS, permeabilized with 0.2% Triton X-100 for 2 to 5 min, and then blocked with PBS containing 2% BSA for 3 h at room temperature. The coverslips were then treated with mouse anti-FLAG M2 antibody (Sigma; 1:1,000 dilution in blocking buffer) and rabbit anti-Arl13b (10) (1:1,000 dilution in blocking buffer) for 3 h at room temperature and washed 3×5 min with PBS. The coverslips were incubated next with Alexa Fluor 594-conjugated goat anti-mouse IgG and Alexa Fluor 488-conjugated donkey anti-rabbit IgG antibodies (Invitrogen; 1:1,000 dilutions in blocking buffer) for 2 h at room temperature. After washes with PBS and a 5-min incubation with 4,6-diamidino-2-phenylindole (DAPI), the samples were mounted using Prolong Gold (Invitrogen) and imaged with an upright Leica DM4500B compound microscope. In order to quantify ciliary Gli2 localization, a circular region with diameter equal to the average width of cilia as determined by the anti-Arl13b antibody staining was manually placed at the distal end of each cilium. Regions were transferred from the anti-Arl13b antibody image to the anti-FLAG antibody image, and FLAG staining intensities within those areas were assessed. Between 40 and 80 cilia were analyzed for each condition. To normalize ciliary FLAG-Gli2 levels with respect to compound-dependent changes in total FLAG-Gli2 levels, the absolute average intensities for each condition were divided by the fold change in FLAG-Gli2 levels, as determined by the quantitative immunoblotting described above. Quantification of ciliary FLAG-Gli1 levels was performed in an analogous manner. Since HPI-4 perturbs primary cilia formation, only Arl13b-positive structures that could be clearly identified as cilia were used for Gli protein quanitification in HPI-4-treated cells. To assess cytoplasmic microtubule structures in cells treated with the HPIs, NIH-3T3 cells were cultured on poly-D-lysine-coated 12-mm glass coverslip, treated with the HPIs, and fixed with 4% paraformalehyde as described above. In place of the methanol treatment, the cells were permeabilitized with PBS containing 0.1% Triton X-100 for 1 min. Washing, blocking, and antibody incubation steps were then conducted as before, using mouse anti-<-tubulin (DM1-A, Sigma, 1:2,000 in blocking buffer). Secondary antibody treatments, DAPI staining, mounting, and imaging were then conducted as described above.
# Chain of Smo (P56726 33-793): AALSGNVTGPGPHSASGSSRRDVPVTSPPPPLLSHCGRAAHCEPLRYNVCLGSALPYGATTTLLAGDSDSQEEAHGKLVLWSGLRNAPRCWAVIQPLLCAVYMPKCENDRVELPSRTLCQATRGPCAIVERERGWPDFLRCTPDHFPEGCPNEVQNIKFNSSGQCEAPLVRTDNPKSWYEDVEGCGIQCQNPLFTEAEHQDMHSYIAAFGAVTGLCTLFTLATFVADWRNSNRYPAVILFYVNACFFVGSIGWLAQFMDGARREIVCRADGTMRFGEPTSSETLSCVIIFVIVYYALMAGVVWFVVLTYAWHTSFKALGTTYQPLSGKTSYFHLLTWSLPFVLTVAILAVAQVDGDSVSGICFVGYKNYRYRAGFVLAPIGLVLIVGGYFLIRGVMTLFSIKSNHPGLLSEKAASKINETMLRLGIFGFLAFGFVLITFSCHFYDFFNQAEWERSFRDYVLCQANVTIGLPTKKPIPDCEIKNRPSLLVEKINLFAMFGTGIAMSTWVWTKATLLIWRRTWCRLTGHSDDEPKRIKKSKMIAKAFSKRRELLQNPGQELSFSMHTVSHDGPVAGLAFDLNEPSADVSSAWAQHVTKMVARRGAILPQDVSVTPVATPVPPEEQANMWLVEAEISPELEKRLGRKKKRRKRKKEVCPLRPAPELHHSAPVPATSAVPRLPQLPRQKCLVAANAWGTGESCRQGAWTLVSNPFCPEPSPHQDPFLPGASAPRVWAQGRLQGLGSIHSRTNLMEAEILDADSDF
# Chain of Smo (P56726 33-793): as above
SMILES,Shh-induced fold change in Smo-CFP/Smo-YFP FRET (Smo),FLAG-Gli1 stability/levels (immunoblotting) (FLAG-Gli1),Basal Smo-CFP/Smo-YFP FRET levels (Smo),Ciliary levels of FLAG-Gli2 (FLAG-Gli2),Primary cilia formation (FLAG-Gli2; 30 μM HPI-4)
"COCCOC(=O)C1=C(C)NC2=C(C(=O)CC(c3ccccc3OC)C2)C1c1cccc(O)c1 (mixture of isomers) [Compound 8, 4-(3-Hydroxy-phenyl)-7-(2-methoxy-phenyl)-2-methyl-5-oxo-1,4,5,6,7,8-hexahydro-quinoline-3-carboxylic acid 2-methoxy-ethyl ester]",attenuated the fold-change in Smo-CFP/Smo-YFP FRET upon Shh stimulation,increased,,,
OCCNc1nc(N2CCN(c3ccccc3)CC2)nc2ccccc12 [Compound 11],,neither HPI-2 or HPI-3 had any significant effect on FLAG-Gli1 levels,decreased basal FRET levels,increased ciliary levels of FLAG-Gli2,
COc1ccc(OC)c2c1cc1n2CC(C)(C(=O)NC2CCCCCCC2)N(CCN(C)C)C1=O (stereo not shown) [Compound 17],attenuated the fold-change in Smo-CFP/Smo-YFP FRET upon Shh stimulation,neither HPI-2 or HPI-3 had any significant effect on FLAG-Gli1 levels,decreased basal FRET levels,increased ciliary levels of FLAG-Gli2,
N#CC(C(=O)c1ccc(Cl)cc1Cl)=C1NC(=O)c2ccccc2N1 [Compound 18],,decreased,decreased basal FRET levels,increased ciliary levels of FLAG-Gli2,truncated primary cilia; also recorded: inhibits primary cilia formation
